Test results as given in patent publication US20080051418A1, “Arylalkanoic Acid Derivative” (priority 2004, published 2008).

melting point | SMILES
124 to 128 °C | CCOCc1cc(COc2cc(CCC(=O)O)n(-c3ccccc3)n2)cc(Oc2ncc(C(F)(F)F)cc2Cl)c1 [Example 199, 3-(3-{[3-{[3-chloro-5-(trifluoromethyl)pyridin-2-yl]oxy}-5-(ethoxymethyl)benzyl]oxy}-1-phenyl-1H-pyrazol-5-yl)propanoic acid]
125 to 127 °C | CC(C)Oc1ccc(CCCOc2cc(CCC(=O)O)n(C)n2)c(OCc2ccc(Cl)cc2Cl)c1 [Example 161, 3-[3-(3-{2-[(2,4-dichlorobenzyl)oxy]-4-isopropoxyphenyl}propoxy) 1-methyl-1H-pyrazol-5-yl]propanoic acid]
55 to 58 °C | CC(C)Oc1cc(COc2ccc(C(F)(F)F)cc2)cc(COc2cc(CCC(=O)O)n(-c3ccccc3)n2)c1 [Example 202, 3-{3-[(3-isopropoxy-5-{[4-(trifluoromethyl)phenoxy]methyl}benzyl)oxy]-1-phenyl-1H-pyrazol-5-yl}propanoic acid]
97.5 to 98.5 °C | CCOc1cc(Cc2ccccn2)ccc1CCCOc1c(CC(=O)O)cccc1OC [Example 125, (2-{3-[2-ethoxy-4-(pyridin-2-ylmethyl)phenyl]propoxy}-3-methoxyphenyl)acetic acid]
76.5 to 77.5 °C | CCc1cccc(CC(=O)O)c1OCCn1cc(CCOc2ncc(C(F)(F)F)cc2Cl)c(OC(C)C)n1 [Example 188, (2-{2-[4-(2-{[3-chloro-5-(trifluoromethyl)pyridin-2-yl]oxy}ethyl)-3-isopropoxy-1H-pyrazol-1-yl]ethoxy}-3-ethylphenyl)acetic acid]
77 to 78 °C | CC(C)Oc1ccc(CCCOc2cc(CCC(=O)O)n(C)n2)c(Oc2ncc(Cl)cc2Cl)c1 [Example 140, 3-[3-(3-{2-[(3,5-dichloropyridin-2-yl)oxy]-4-isopropoxyphenyl}propoxy)-1-methyl-1H-pyrazol-5-yl]propanoic acid]
183 to 184 °C | CCc1cnn(CC(=O)O)c1OCCn1cc(C(=O)NCc2ccc(C(F)(F)F)cc2)c(OC(C)C)n1 [Example 185, (4-ethyl-5-{2-[3-isopropoxy-4-({[4-(trifluoromethyl)benzyl]amino}carbonyl)-1H-pyrazol-1-yl]ethoxy}-1H-pyrazol-1-yl)acetic acid]
108 to 110 °C | CC(C)Oc1cc(COc2cc(CCC(=O)O)n(-c3ccccc3)n2)cc(COc2ccc(Cl)cc2Cl)c1 [Example 195, 3-[3-({3-[(2,4-dichlorophenoxy)methyl]-5-isopropoxybenzyl}oxy)-1-phenyl-1H-pyrazol-5-yl]propanoic acid]
110 to 111 °C | CCc1cccc(CC(=O)O)c1OCCn1cc(C(=O)NCc2ccc(C(F)(F)F)cc2)c(OC(C)C)n1 [Example 184, (3-ethyl-2-{2-[3-isopropoxy-4-({[4-(trifluoromethyl)benzyl]amino}carbonyl)-1H-pyrazol-1-yl]ethoxy}phenyl)acetic acid]
105 to 106 °C | CC(C)Oc1cc(COc2cc(CCC(=O)O)n(C)n2)cc(COc2ccc(Cl)cc2Cl)c1 [Example 194, 3-[3-({3-[(2,4-dichlorophenoxy)methyl]-5-isopropoxybenzyl}oxy)-1-methyl-1H-pyrazol-5-yl]propanoic acid]
140 to 142 °C | CC(C)Oc1cc(COc2cc(CCC(=O)O)n(-c3ccccc3)n2)cc(COc2ncc(C(F)(F)F)cc2Cl)c1 [Example 203, 3-(3-{[3-({[3-chloro-5-(trifluoromethyl)pyridin-2-yl]oxy}methyl)-5-isopropoxybenzyl]oxy}-1-phenyl-1H-pyrazol-5-yl)propanoic acid]
107 to 108 °C | CC(C)c1ncc(CCCOc2nn(C)cc2CC(=O)O)c(Oc2ccc(Cl)cc2Cl)n1 [Example 128, (3-{3-[4-(2,4-dichlorophenoxy)-2-isopropylpyrimidin-5-yl]propoxy}-1-methyl-1H-pyrazol-4-yl)acetic acid]
60 to 62 °C | CC(C)Oc1ccc(CCCOc2cc(CCC(=O)O)n(-c3ccccc3)n2)c(Oc2ccc(Cl)cc2Cl)n1 [Example 171, 3-(3-{3-[2-(2,4-dichlorophenoxy)-6-isopropoxypyridin-3-yl]propoxy}-1-phenyl-1H-pyrazol-5-yl)propanoic acid]
128 to 130 °C | CC(C)Oc1cc(Oc2ccc(C(F)(F)F)cn2)ccc1CCCOc1cc(CCC(=O)O)n(C)n1 [Example 152, 3-{3-[3-(2-isopropoxy-4-{[5-(trifluoromethyl)pyridin-2-yl]oxy}phenyl)propoxy]-1-methyl-1H-pyrazol-5-yl}propanoic acid]
105 to 107 °C | CC(C)c1nn(Cc2ccc(Cl)cc2Cl)cc1CCCOc1cc(CCC(=O)O)n(-c2ccccc2)n1 [Example 190, 3-(3-{3-[1-(2,4-dichlorobenzyl)-3-isopropyl-1H-pyrazol-4-yl]propoxy}-1-phenyl-1H-pyrazol-5-yl)propanoic acid]
126 to 130 °C | O=C(O)CCc1cc(OCc2cc(COc3ccc(Cl)cc3Cl)cc(OCc3ccccc3)c2)nn1-c1ccccc1 [Example 198, 3-[3-({3-(benzyloxy)-5-[(2,4-dichlorophenoxy)methyl]benzyl}oxy)-1-phenyl-1H-pyrazol-5-yl]propanoic acid]
132 to 133 °C | CCOc1nn(Cc2ccc(Cl)cc2Cl)cc1CCCOc1cc(CCC(=O)O)n(-c2ccccc2)n1 [Example 183, 3-(3-{3-[1-(2,4-dichlorobenzyl)-3-ethoxy-1H-pyrazol-4-yl]propoxy}-1-phenyl-1H-pyrazol-5-yl)propanoic acid]

More lines, now with the values behind:

SMILES | melting point
COc1cccc(CC(=O)O)c1OCc1cc(OC(C)C)nn1Cc1ccc2ccccc2n1 [Example 8, (2-{[3-isopropoxy-1-(quinolin-2-ylmethyl)-1H-pyrazol-5-yl]methoxy}-3-methoxyphenyl)acetic acid] | 129 to 130 °C
CCCOc1cc(CCCOc2nn(C)cc2CC(=O)O)n(Cc2ccc(Cl)cc2Cl)n1 [Example 88, (3-{3-[1-(2,4-dichlorobenzyl)-3-propoxy-1H-pyrazol-5-yl]propoxy}-1-methyl-1H-pyrazol-4-yl)acetic acid] | 77 to 81 °C
Cc1cc(Cl)ccc1Cn1nc(OC(C)C)cc1CCCOc1ncccc1CC(=O)O [Example 74, (2-{3-[1-(4-chloro-2-methylbenzyl)-3-isopropoxy-1H-pyrazol-5-yl]propoxy}pyridin-3-yl)acetic acid] | 97 to 98 °C
CCOc1cccc(CC(=O)O)c1OCCCc1cc(OC(C)C)nn1Cc1ccc(Cl)cc1Cl [Example 23, (2-{3-[1-(2,4-dichlorobenzyl)-3-isopropoxy-1H-pyrazol-5-yl]propoxy}-3-ethoxyphenyl)acetic acid] | 132 to 133 °C
CC(C)c1nc(CCCOc2ncccc2CC(=O)O)c(Cc2ccc(Cl)cc2Cl)s1 [Example 53, (2-{3-[5-(2,4-dichlorobenzyl)-2-isopropyl-1,3-thiazol-4-yl]propoxy}pyridin-3-yl)acetic acid] | 106 to 107 °C
CCOc1cc(CCCOc2c(CC(=O)O)cccc2OC)n(Cc2ccc(Cl)cc2Cl)n1 [Example 26, (2-{3-[1-(2,4-dichlorobenzyl)-3-ethoxy-1H-pyrazol-5-yl]propoxy}-3-methoxyphenyl)acetic acid] | 109 to 110 °C
COc1cc(CCCOc2c(CC(=O)O)cccc2OC)n(Cc2ccc(Cl)cc2Cl)n1 [Example 28, (2-{3-[1-(2,4-dichlorobenzyl)-3-methoxy-1H-pyrazol-5-yl]propoxy}-3-methoxyphenyl)acetic acid] | 111 to 112 °C
CCCOc1cc(CCCOc2c(CC(=O)O)cccc2OC)n(Cc2ccc(Cl)cc2)n1 [Example 81, (2-{3-[1-(4-chlorobenzyl)-3-propoxy-1H-pyrazol-5-yl]propoxy}-3-methoxyphenyl)acetic acid] | 131 to 132 °C
CC(C)Oc1ccc(CCCCOc2cc(CCC(=O)O)n(C(C)C)n2)c(Oc2ncc(C(F)(F)F)cc2Cl)c1 [Example 159, 3-{3-[4-(2-{[3-chloro-5-(trifluoromethyl)pyridin-2-yl]oxy}-4-isopropoxyphenyl)butoxy]-1-isopropyl-1H-pyrazol-5-yl}propanoic acid] | 99.5 to 100.5 °C
COc1cccc(CC(=O)O)c1OCc1cc(OC(C)C)nn1Cc1ccc(Cl)cc1Cl [Example 50, (2-{[1-(2,4-dichlorobenzyl)-3-isopropoxy-1H-pyrazol-5-yl]methoxy}-3-methoxyphenyl)acetic acid] | 127 to 128 °C
CN(C)CCOc1cc(CCCOc2nn(Cc3ccccc3)cc2CC(=O)O)n(Cc2ccc(Cl)cc2Cl)n1 [Example 96, [1-benzyl-3-(3-{1-(2,4-dichlorobenzyl)-3-[2-(dimethylamino)ethoxy]-1H-pyrazol-5-yl}propoxy)-1H-pyrazol-4-yl]acetic acid] | 78.3 to 80.8 °C
CCc1cccc(CC(=O)O)c1OCCCc1cn(Cc2nc(-c3ccccc3)oc2C)nc1C(C)C [Example 54, [3-ethyl-2-(3-{3-isopropyl-1-[(5-methyl-2-phenyl-1,3-oxazol-4-yl)methyl]-1H-pyrazol-4-yl}propoxy)phenyl]acetic acid] | 94 to 95 °C
CC(C)Oc1cc(CCCOc2c(CC(=O)O)ccc3ccccc23)n(Cc2ccc(Cl)cc2Cl)n1 [Example 87, (1-{3-[1-(2,4-dichlorobenzyl)-3-isopropoxy-1H-pyrazol-5-yl]propoxy}-2-naphthyl)acetic acid] | 96 to 98 °C
CCOc1cc(C(=O)c2ccccn2)ccc1OCCOc1c(CC(=O)O)cccc1OC [Example 123, (2-{2-[2-ethoxy-4-(pyridin-2-ylcarbonyl)phenoxy]ethoxy}-3-methoxyphenyl)acetic acid] | 184 to 186 °C
CC(C)Oc1cc(CCCOc2nn(C)cc2CC(=O)O)n(Cc2ccc(Cl)cc2Cl)n1 [Example 32, (3-{3-[1-(2,4-dichlorobenzyl)-3-isopropoxy-1H-pyrazol-5-yl]propoxy}-1-methyl-1H-pyrazol-4-yl)acetic acid] | 96 to 97 °C
CCCn1nc(OCc2ccc3ccccc3n2)cc1COc1c(CC)cccc1CC(=O)O [Example 5, (3-ethyl-2-{[1-propyl-3-(quinolin-2-ylmethoxy)-1H-pyrazol-5-yl]methoxy}phenyl)acetic acid] | 118 to 119 °C
CCc1cccc(CC(=O)O)c1OCCCc1cc(OC(C)C)nn1Cc1ccc(Cl)cc1Cl [Example 29, (2-{3-[1-(2,4-dichlorobenzyl)-3-isopropoxy-1H-pyrazol-5-yl]propoxy}-3-ethylphenyl)acetic acid] | 98 to 99 °C
